Results as given in patent US11179391B2, “Compound with kinase inhibitory activity and preparation method and use thereof” (priority 2017, dated 2021).
Where two headings read alike, the source gives them in different places.

Columns and labels:
Format in all cases: biochemical
CDK4/CycD3 = CDK4/CycD3 (Homo sapiens, UniProt P11802); assay: Determination of CDK activity (Caliper mobility shift, FAM-P8 peptide): CDK4; details: CDK4/CycD3; read-out: CDK4 enzymatic inhibitory activity (IC50)
Method: (§1) In vitro, CDK (CDK4, CDK6, CDK1, CDK2, CDK7, and CDK9) kinase activity was tested by the following method.
(§2) CDK and raw materials used here: CDK4/CycD3 (Carna, Cat. No 04-105, Lot. No 10CBS-0429 C, GST-CDK4(1-303end)/GST-CycD3(1-292end)); CDK6/cycD3 (Carna, Cat. No 04-107, Lot. No 09CBS-0622K, GST-CDK6(1-326(end))); CDK1/CyclinB (Millipore, Cat. 14-450k, Lot. No 25729U, His-CDK1+GST-cyclinB); CDK2/CycA2 (Carna, Cat. No 04-103, Lot. No 06CBS-3024, GST-CDK2 (1-298(end))); CDK7/CyclinH/MAT1 (Millipore, Cat. No 14-476M, Lot. No WAB0365-A, His-CDK7+GST-MAT1+cyclinH); CDK9/cyclinTl (Millipore, Cat. No 14-685K, Lot. No. 2476163-A, His-CDK9+cyclinTl); Peptide FAM-P8 (GL Biochem, Cat. No. 112396, Lot. No. P100804-XZ112396); ATP (Sigma, Cat. No. A7699-1G, CAS No. 987-65-5); DMSO (Sigma, Cat. No. D2650, Lot. No. 474382); EDTA (Sigma, Cat. No. E5134, CAS No. 60-00-4); 96-well plate (Corning, Cat. No. 3365, Lot. No. 22008026); 384-well plate (Corning, Cat. No. 3573, Lot. No. 12608008); Staurosporine (Sigma, Cat. No. S4400-1MG, Lot. No. 046K4080).
(§3) 1. Prepared 1× Kinase Buffer and Stop Buffer for the Test
2) 1× Kinase Base Buffer (CDK4).
(§4) 1) Diluted the compound to 50 times of the maximum concentration with 100% DMSO. For example, if the desired maximum inhibitory concentration is 10 μM, then a DMSO solution of 500 μM concentration is required.
(§5) 2) Transferred the compound to a 96-well plate and serially diluted the compound from a 100% DMSO solution at a ratio of 30 μm to 60 μm for a total of 10 concentrations gradients. 3) Transferred 100 μm of 100% DMSO to two empty wells as a no compound control and a no enzyme control.
(§6) 4) Prepared intermediate plate and transferred the compound of 10 μm concentration from the original plate to the intermediate plate, and then 90 μm of 1× kinase buffer was added and mixed by shaking for 10 min.
(§7) 4) Preparing intermediate plate and transferred the compound of […] concentration from the original plate to the intermediate plate, and then 90 μm of 1× kinase buffer was added and mixed by shaking for 10 min.
(§8) 1) Transferred 5 μm of each compound from the 96-well intermediate plate to a 384-well plate. For example, A1 of the 96-well plate was transferred to A1 and A2 of the 384-well plate. A2 of the 96-well plate was transferred to A3 and A4 of the 384-well plate, and so on.
(§9) 1) Prepared a 2.5× enzyme solution: added kinase into 1× kinase base buffer.
(§10) 2) Prepared a 2.5× peptide solution: added FAM-labeled peptide and ATP into the 1× kinase base buffer.
(§11) 3) Transferred the 2.5× enzyme solution to the assay plate: Assay plate already contained 5 μm of 10% DMSO and transferred 10 μm of 2.5× enzyme solution to each well.
(§12) 4) Incubated at room temperature for 10 min.
(§13) 5) Transferred the 2.5× peptide solution to the assay plate: added 10 μm of 2.5× peptide solution to each well of the 384-well assay plate.
(§14) 6) Kinase reaction and termination: incubated at 28° C. for a specified period and added 25 μm of stop buffer to stop the reaction.
(§15) 5. Caliper Reading: Collect Data on Caliper.
(§16) 1) Copied conversion data from Caliper program and Converted conversion values to inhibition values: Inhibition rate (%)=(1−OD value of the compound-OD value of the control well)/(OD value of the control empty-OD value of the control well)*100%.
(§17) 2) Fitted the data in XLFit excel add-in version 4.3.1 to give the corresponding IC50 values.

CDK7/CyclinH/MAT1 = CDK7/CyclinH/MAT1 (Homo sapiens, UniProt P50613); assay: Determination of CDK activity (Caliper mobility shift, FAM-P8 peptide): CDK7; details: CDK7/CyclinH/MAT1; read-out: CDK7 enzymatic inhibitory activity (IC50)
Method: as §1, §2, §3
(§18) 3) 1× Kinase Base Buffer (CDK7 and 9).
as §4, §5, §6, §7, §8, §9, §10, §11, §12, §13, §14, §15, §16, §17

CDK2/CycA2 = CDK2/CycA2 (Homo sapiens, UniProt P24941); assay: Determination of CDK activity (Caliper mobility shift, FAM-P8 peptide): CDK2; details: CDK2/CycA2; read-out: CDK2 enzymatic inhibitory activity (IC50)
Method: as §1, §3
(§19) 1) 1× Kinase Base Buffer (CDK1, 2, and 6).
as §4, §5
(§20) 1) Transferred 5 μm of each compound from the 96-well intermediate plate to a 384-well plate. […] A2 of the 96-well plate was transferred to A3 and A4 of the 384-well plate, and so on.
as §9, §10, §11, §12, §13, §14, §15, §16, §17

CDK9/cyclinTl = CDK9/cyclinTl (Homo sapiens, UniProt P50750); assay: Determination of CDK activity (Caliper mobility shift, FAM-P8 peptide): CDK9; details: CDK9/cyclinTl
Method: as §1, §3, §18, §4, §5, §20, §9, §10, §11, §12, §13, §14, §15, §16, §17

CDK1/CyclinB = CDK1/CyclinB (Homo sapiens, UniProt P06493); assay: Determination of CDK activity (Caliper mobility shift, FAM-P8 peptide): CDK1; details: CDK1/CyclinB; read-out: CDK1 enzymatic inhibitory activity (IC50)
Method: as §1, §3, §19, §4, §5, §20, §9, §10, §11, §12, §13, §14, §15, §16, §17

CDK6/cycD3 = CDK6/cycD3 (Homo sapiens, UniProt Q00534); assay: Determination of CDK activity (Caliper mobility shift, FAM-P8 peptide): CDK6; details: CDK6/cycD3; read-out: CDK6 enzymatic inhibitory activity (IC50)
Method: as §1, §2, §3, §19, §4, §5, §6, §7, §8, §9, §10, §11, §12, §13, §14, §15, §16, §17

[1] = read-out: CDK9 enzymatic inhibitory activity (IC50)
[2] = CDK9 enzymatic inhibitory activity (IC50)

Chain of CDK1/CyclinB (P06493 whole entry): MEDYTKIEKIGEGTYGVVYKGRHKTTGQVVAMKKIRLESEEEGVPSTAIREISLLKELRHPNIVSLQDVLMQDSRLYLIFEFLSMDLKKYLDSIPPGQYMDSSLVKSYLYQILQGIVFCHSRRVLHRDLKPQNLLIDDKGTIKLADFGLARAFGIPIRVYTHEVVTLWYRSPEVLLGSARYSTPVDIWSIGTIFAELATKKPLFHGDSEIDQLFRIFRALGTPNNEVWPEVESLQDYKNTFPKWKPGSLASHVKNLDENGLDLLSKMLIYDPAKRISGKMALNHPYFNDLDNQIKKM
Chain of CDK1/CyclinB (P14635 whole entry partner): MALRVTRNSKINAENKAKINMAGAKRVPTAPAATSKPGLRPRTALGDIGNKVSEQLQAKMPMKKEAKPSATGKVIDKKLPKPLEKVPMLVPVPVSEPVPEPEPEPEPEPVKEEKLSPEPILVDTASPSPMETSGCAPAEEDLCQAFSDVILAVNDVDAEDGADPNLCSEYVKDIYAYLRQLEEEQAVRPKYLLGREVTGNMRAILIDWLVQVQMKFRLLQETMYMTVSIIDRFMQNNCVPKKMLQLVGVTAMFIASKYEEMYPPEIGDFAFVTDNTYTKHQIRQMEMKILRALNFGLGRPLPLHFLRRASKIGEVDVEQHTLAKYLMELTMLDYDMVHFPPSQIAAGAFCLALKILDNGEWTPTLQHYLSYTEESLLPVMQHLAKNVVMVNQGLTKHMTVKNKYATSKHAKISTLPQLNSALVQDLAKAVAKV
Chain of CDK7/CyclinH/MAT1 (P50613 whole entry): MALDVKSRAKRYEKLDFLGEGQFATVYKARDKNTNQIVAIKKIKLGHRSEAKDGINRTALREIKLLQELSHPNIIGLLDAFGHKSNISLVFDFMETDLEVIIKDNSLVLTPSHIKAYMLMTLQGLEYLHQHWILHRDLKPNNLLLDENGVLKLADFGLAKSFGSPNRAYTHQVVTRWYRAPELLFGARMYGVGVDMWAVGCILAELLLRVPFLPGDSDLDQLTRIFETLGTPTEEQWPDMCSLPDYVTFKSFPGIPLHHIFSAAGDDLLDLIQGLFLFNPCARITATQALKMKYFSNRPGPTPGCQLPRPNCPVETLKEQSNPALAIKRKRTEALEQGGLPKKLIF
Chain of CDK7/CyclinH/MAT1 (P51946 whole entry partner): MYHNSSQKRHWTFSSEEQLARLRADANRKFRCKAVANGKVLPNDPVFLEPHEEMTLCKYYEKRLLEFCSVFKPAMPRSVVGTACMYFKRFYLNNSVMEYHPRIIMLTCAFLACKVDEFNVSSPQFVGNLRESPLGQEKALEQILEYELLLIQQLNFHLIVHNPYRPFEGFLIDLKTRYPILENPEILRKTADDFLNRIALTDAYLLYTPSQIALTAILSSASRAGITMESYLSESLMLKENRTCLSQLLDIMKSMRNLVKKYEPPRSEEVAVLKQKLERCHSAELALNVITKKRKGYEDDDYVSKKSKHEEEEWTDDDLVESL
Chain of CDK7/CyclinH/MAT1 (P51948 whole entry partner): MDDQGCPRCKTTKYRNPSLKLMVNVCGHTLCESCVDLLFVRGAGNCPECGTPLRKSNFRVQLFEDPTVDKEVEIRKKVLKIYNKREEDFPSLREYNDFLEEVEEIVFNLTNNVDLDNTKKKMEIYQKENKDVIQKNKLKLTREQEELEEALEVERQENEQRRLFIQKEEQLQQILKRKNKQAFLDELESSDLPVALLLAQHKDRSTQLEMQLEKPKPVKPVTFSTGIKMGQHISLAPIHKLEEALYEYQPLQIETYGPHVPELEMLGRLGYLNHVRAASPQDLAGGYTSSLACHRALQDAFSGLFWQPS
Chain of CDK9/cyclinTl (P50750 whole entry): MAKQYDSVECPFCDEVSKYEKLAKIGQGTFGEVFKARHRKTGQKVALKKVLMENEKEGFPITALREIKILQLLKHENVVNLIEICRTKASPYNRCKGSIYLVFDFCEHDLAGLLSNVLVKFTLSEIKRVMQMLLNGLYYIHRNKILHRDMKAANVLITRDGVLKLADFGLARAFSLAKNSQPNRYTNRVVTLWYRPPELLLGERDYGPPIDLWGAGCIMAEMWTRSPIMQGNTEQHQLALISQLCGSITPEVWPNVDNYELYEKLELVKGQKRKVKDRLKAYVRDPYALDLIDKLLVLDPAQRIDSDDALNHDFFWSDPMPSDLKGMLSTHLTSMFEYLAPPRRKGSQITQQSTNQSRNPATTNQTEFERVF
Chain of CDK9/cyclinTl (O60563 whole entry partner): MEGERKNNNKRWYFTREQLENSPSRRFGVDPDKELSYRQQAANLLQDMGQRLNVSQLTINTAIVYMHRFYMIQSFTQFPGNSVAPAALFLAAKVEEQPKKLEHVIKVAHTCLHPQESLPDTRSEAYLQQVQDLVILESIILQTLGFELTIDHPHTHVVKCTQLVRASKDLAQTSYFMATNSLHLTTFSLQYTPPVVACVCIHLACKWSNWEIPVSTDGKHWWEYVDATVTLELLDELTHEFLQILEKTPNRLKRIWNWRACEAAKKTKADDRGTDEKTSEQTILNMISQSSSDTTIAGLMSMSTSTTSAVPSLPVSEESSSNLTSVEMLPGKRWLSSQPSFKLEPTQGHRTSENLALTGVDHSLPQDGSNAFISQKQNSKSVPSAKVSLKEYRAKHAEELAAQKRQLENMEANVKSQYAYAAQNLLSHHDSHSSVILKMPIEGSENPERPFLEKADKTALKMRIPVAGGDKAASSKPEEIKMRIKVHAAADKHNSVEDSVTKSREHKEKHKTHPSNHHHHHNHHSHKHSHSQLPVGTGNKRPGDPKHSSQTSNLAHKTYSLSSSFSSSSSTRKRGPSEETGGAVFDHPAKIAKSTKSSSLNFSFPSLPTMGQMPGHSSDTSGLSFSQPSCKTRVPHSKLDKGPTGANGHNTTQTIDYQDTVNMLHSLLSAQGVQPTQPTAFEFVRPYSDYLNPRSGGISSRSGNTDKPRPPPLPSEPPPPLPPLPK
Chain of CDK6/cycD3 (Q00534 whole entry): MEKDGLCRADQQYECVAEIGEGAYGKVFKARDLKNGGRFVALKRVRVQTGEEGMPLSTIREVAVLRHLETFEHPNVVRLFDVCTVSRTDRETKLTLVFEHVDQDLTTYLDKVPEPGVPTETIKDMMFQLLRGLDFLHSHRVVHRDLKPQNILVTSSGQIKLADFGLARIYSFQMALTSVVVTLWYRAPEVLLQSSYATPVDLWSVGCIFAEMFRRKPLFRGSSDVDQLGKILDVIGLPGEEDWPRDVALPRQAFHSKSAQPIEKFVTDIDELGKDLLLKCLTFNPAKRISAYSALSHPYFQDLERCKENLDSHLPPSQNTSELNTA
Chain of CDK6/cycD3 (P30281 whole entry partner): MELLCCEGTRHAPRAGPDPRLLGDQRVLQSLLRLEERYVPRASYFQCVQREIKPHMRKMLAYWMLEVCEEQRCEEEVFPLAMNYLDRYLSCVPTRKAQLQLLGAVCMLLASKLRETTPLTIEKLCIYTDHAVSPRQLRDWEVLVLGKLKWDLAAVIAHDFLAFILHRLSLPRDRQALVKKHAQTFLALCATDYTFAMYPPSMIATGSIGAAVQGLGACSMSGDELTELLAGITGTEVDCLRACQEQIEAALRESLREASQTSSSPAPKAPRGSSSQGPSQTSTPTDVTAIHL
Chain of CDK4/CycD3 (P11802 whole entry): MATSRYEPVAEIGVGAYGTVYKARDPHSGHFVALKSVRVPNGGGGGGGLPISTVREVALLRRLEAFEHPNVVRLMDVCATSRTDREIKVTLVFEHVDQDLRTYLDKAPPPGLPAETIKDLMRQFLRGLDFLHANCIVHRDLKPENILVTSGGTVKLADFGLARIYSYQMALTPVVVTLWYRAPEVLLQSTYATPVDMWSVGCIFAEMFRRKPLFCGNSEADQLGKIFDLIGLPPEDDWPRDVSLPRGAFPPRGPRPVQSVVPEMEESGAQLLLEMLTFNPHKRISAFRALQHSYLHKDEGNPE
Chain of CDK4/CycD3 (P30281 whole entry partner): as the sequence (P30281 whole entry partner) above

Compound	IC50 (CDK4/CycD3) [nM]	IC50 (CDK7/CyclinH/MAT1) [nM]	IC50 (CDK2/CycA2) [nM]	IC50 (CDK9/cyclinTl; [1]) [nM]	IC50 (CDK1/CyclinB) [nM]	IC50 (CDK6/cycD3) [nM]	IC50 (CDK9/cyclinTl; [2]) [nM]
CC[C@@H](c1ccc(Nc2ncc(F)c(-c3cc(F)c4nc(C)n(C(C)C)c4c3)n2)nc1)N1CCNCC1 [Example 4]	< 100	1000 to 10000	1000 to 10000	1000 to 10000	10000 to 100000	500 to 1000	
CC[C@@H](c1ccc(Nc2ncc(F)c(-c3cc(F)c4nc(C)n(C(C)C)c4c3)n2)nc1)N1CCN(C)CC1 [Example 6]	< 100	1000 to 10000	1000 to 10000		10000 to 100000	100 to 500	1000 to 10000
Cc1nc2c(F)cc(-c3nc(Nc4ccc([C@H](C)C5CCN(C)CC5)cn4)ncc3F)cc2n1C(C)C (single isomer, unassigned) [Example 21]	< 100	1000 to 10000	< 100	100 to 500	100 to 500	< 100	
CCC(c1ccc(Nc2ncc(F)c(-c3cc(F)c4nc(C)n(C(C)C)c4c3)n2)nc1)N1CCN(CC)CC1 (single isomer, unassigned) [Example 3, (R or S)—N-(5-(1-(4-ethylpiperazin-1-yl)propyl)pyridin-2-yl)-5-fluoro-4-(4-fluoro-1-isopropyl-2-methyl-1H-benzo[d]imidazol-6-yl) pyrimidin-2-amine]	< 100	1000 to 10000	10000 to 100000	10000 to 100000	10000 to 100000	100 to 500	
CC[C@H](c1ccc(Nc2ncc(F)c(-c3cc(F)c4nc(C)n(C(C)C)c4c3)n2)nc1)N1CCN(C)CC1 [Example 7]	< 100	1000 to 10000	10000 to 100000		10000 to 100000	1000 to 10000	10000 to 100000
C=C(c1ccc(Nc2ncc(F)c(-c3cc(F)c4nc(C)n(C(C)C)c4c3)n2)nc1)C1CCN(C)CC1 [Example 35]	< 100	1000 to 10000	< 100	< 100	100 to 500	100 to 500	
CCC(c1ccc(Nc2ncc(F)c(-c3cc(F)c4nc(C)n(C(C)C)c4c3)n2)nc1)N1CCN(CC)CC1 (racemic) [Example 1, N-(5-(1-(4-ethylpiperazin-1-yl)propyl)pyridin-2-yl)-5-fluoro-4-(4-fluoro-1-isopropyl-2-methyl-1H-benzo[d]imidazol-6-yl)pyrimidin-2-amine]	< 100	1000 to 10000	1000 to 10000	1000 to 10000	10000 to 100000	1000 to 10000	

Continued, in another order:

IC50 (CDK4/CycD3) [nM]	IC50 (CDK7/CyclinH/MAT1) [nM]	IC50 (CDK2/CycA2) [nM]	IC50 (CDK9/cyclinTl; [1]) [nM]	IC50 (CDK1/CyclinB) [nM]	IC50 (CDK6/cycD3) [nM]	Compound	IC50 (CDK9/cyclinTl; [2]) [nM]
< 100	1000 to 10000	< 100	100 to 500	100 to 500	< 100	Cc1nc2c(F)cc(-c3nc(Nc4ccc([C@H](C)C5CCN(CC(F)F)CC5)cn4)ncc3F)cc2n1C(C)C [Example 83]	
< 100	1000 to 10000	100 to 500	100 to 500	500 to 1000	100 to 500	Cc1nc2c(F)cc(-c3nc(Nc4ccc(C=C5CCN(C)CC5)cn4)ncc3F)cc2n1C(C)C [Example 60]	
< 100	1000 to 10000	< 100	100 to 500	100 to 500	< 100	Cc1nc2c(F)cc(-c3nc(Nc4ccc([C@H](C)C5CCN(CCO)CC5)cn4)ncc3F)cc2n1C(C)C [Example 77]	
< 100	1000 to 10000	< 100	100 to 500	100 to 500	< 100	Cc1nc2c(F)cc(-c3nc(Nc4ccc(C=C5CCN(CCO)CC5)cn4)ncc3F)cc2n1C(C)C [Example 67]	
< 100	1000 to 10000	100 to 500	100 to 500	500 to 1000	100 to 500	Cc1nc2c(F)cc(-c3nc(Nc4ccc([C@@H](C)C5CCN(C(C)C)CC5)cn4)ncc3F)cc2n1C(C)C (single isomer, unassigned) [Example 74]	
< 100	1000 to 10000	< 100	100 to 500	100 to 500	< 100	Cc1nc2c(F)cc(-c3nc(Nc4ccc([C@H](C)C5CCN(CC(F)(F)F)CC5)cn4)ncc3F)cc2n1C(C)C [Example 85]	
< 100	1000 to 10000	< 100	100 to 500	100 to 500	< 100	Cc1nc2c(F)cc(-c3nc(Nc4ccc(C=C5CCN(CC(F)F)CC5)cn4)ncc3F)cc2n1C(C)C [Example 69]	
< 100	1000 to 10000	< 100	100 to 500	100 to 500	< 100	Cc1nc2c(F)cc(-c3nc(Nc4ccc([C@H](C)C5CCN(C6CC6)CC5)cn4)ncc3F)cc2n1C(C)C [Example 75]	
